Columns and labels:
Format in all cases: cell-based, human
platelets [1] = experiment: Platelet aggregation test, thrombin as stimulant; conditions: for in vitro platelet aggregation inhibition, comparative experiment: under the stimulus of thrombin; for platelet aggregation inhibition: human platelets 3×10^8/mL, compound 0.1, 0.5, 1, 5, 10 μM, incubated 3 mins, thrombin stimulant
platelets [2] = experiment: Platelet spreading test on fibrin, phalloidin staining; conditions: platelets 3×10^7/mL, compound 1, 5, 10 μM, incubated 3 mins, spread on fibrin (40 μg/mL), 100× oil immersion lens
Description: (1) Preparation of platelets: use the same method as abovementioned to prepare platelets counting 3×10^7/mL.
The compound is incubated in platelets for 3 mins. The platelets treated by the drug are spread on fibrin (40 μg/mL). After Staining by the fluorescent antibody phalloidin, the spreading of platelets are observed under the 100× oil immersion lens.
(2) Concentration gradient of compound atractylenolide III; final concentrations of the compound in 100 uL platelets are respectively 1 μM, 5 μM, 10 μM. The compound is incubated in platelets for 3 mins. The platelets treated by the drug are spread on fibrin (40 μg/mL). After staining by the fluorescent antibody phalloidin, the spreading of platelets is observed under the 100× oil immersion lens.

Akt molecule = experiment: Western blotting test on phosphorylation levels of related molecules in platelets; conditions: platelet protein samples collected after the aggregation test
Description: After acquiring the aggregation curve in Example 1, platelet protein samples (2×SDS loading protein lysis buffer) are collected, and tested by Western blotting for phosphorylation levels of related molecules.
Testing the phosphorylation levels of related molecules in the signal pathway using Western blotting, when the PI3K/Akt signal pathway is activated, the Akt molecule is activated via phosphorylation, which leads to the activation of downstream enzymes, kinases, transcription factors (e.g. GSK3), etc.
After acquiring the aggregation curve in Example 2, platelet protein samples (2×SDS loading protein lysis buffer) are collected, and tested by Western blotting for phosphorylation levels of related molecules.

Compound	in vitro platelet aggregation inhibition, comparative experiment (platelets [1]; 150 μM)	in vitro platelet aggregation inhibition, comparative experiment (platelets [1]; 10 μM)	platelet aggregation inhibition (platelets [1])	effect on platelet spreading (platelets [2])	phosphorylation level of the Akt molecule (Akt molecule)
CC(=O)Oc1ccccc1C(=O)O [acetylsalicylic acid, reference compound]	does not show the inhibitory effect	–	–	–	–
C=C1CCC[C@]2(C)C[C@]3(O)OC(=O)C(C)=C3C[C@@H]12 [atractylenolide III]	–	has the effect of inhibiting platelet aggregation	has an effect of inhibiting platelet aggregation	has an influence on platelet spreading	affects the phosphorylation level of the Akt molecule
atractylenolide II	–	has the effect of inhibiting platelet aggregation	has an effect of inhibiting platelet aggregation	has an influence on platelet spreading	–
